# Experimental data from US11945836B2, “Compositions and methods for treating CNS disorders” (Sage Therapeutics, Inc., priority 2014, dated 2024).
# Target: rat brain cortical membranes ([35S]-TBPS binding)
# Test: Steroid inhibition of [35S]-TBPS binding (radioligand displacement)
# Details: 3 nM [35S]-TBPS, in the presence of 5 μM GABA
# Method: Steroid Inhibition of TBPS Binding
# TBPS binding assays using rat brain cortical membranes in the presence of 5 μM GABA has been described (Gee et al, J. Pharmacol. Exp. Ther. 1987, 241, 346-353; Hawkinson et al, Mol. Pharmacol. 1994, 46, 977-985; Lewin, A. H et al., Mol. Pharmacol. 1989, 35, 189-194).
# Briefly, cortices are rapidly removed following decapitation of carbon dioxide-anesthetized Sprague-Dawley rats (200-250 g). The cortices are homogenized in 10 volumes of ice-cold 0.32 M sucrose using a glass/teflon homogenizer and centrifuged at 1500×g for 10 min at 4° C. The resultant supernatants are centrifuged at 10,000×g for 20 min at 4° C. to obtain the P2 pellets. The P2 pellets are resuspended in 200 mM NaCl/50 mM Na—K phosphate pH 7.4 buffer and centrifuged at 10,000×g for 10 min at 4° C. This washing procedure is repeated twice and the pellets are resuspended in 10 volumes of buffer. Aliquots (100 uL) of the membrane suspensions are incubated with 3 nM [^35S]-TBPS and 5 μL aliquots of test drug dissolved in dimethyl sulfoxide (DMSO) (final 0.5%) in the presence of 5 μM GABA. The incubation is brought to a final volume of 1.0 mL with buffer. […] Following a 90 min incubation at room temp, the assays are terminated by filtration through glass fiber filters (Schleicher and Schuell No. 32) using a cell harvester (Brandel) and rinsed three times with ice-cold buffer. Filter bound radioactivity is measured by liquid scintillation spectrometry. Non-linear curve fitting of the overall data for each drug averaged for each concentration is done using Prism (GraphPad). […] The concentration of test compound producing 50% inhibition (IC50) of specific binding and the maximal extent of inhibition (Imax) are determined for the individual experiments with the same model used for the overall data and then the means±SEMs of the individual experiments are calculated.
# Various compounds are or can be screened to determine their potential as modulators of [^35S]-TBPS binding in vitro. These assays are or can be performed in accordance with the above discussed procedures.
row,SMILES,IC50 [nM]
1,Cc1cccc(C(=O)[C@H]2CC[C@H]3[C@@H]4CC[C@H]5C[C@](C)(O)CC[C@]5(C)[C@H]4CC[C@]23C)c1 [Compound 82],> 100
2,C[C@@]1(O)CC[C@H]2[C@@H](CC[C@@H]3[C@@H]2CC[C@]2(C)[C@@H](C(=O)c4ccc(-c5ccccc5)cc4)CC[C@@H]32)C1 [Compound 58],50 to 100
3,Cn1ncc(C(=O)[C@H]2CC[C@H]3[C@@H]4CC[C@@H]5C[C@](C)(O)CC[C@@H]5[C@H]4CC[C@]23C)n1 [Compound 99],> 100
4,COc1ccc2cc(C(=O)[C@H]3CC[C@H]4[C@@H]5CC[C@@H]6C[C@](C)(O)CC[C@]6(C)[C@H]5CC[C@]34C)ccc2c1 [Compound 85],> 100
5,C[C@@]1(O)CC[C@@]2(C)[C@@H](CC[C@@H]3[C@@H]2CC[C@]2(C)[C@@H](C(=O)c4ccc(F)cc4)CC[C@@H]32)C1 [Compound 79],> 100
6,C[C@@]1(O)CC[C@@]2(C)[C@@H](CC[C@@H]3[C@@H]2CC[C@]2(C)[C@@H](C(=O)c4ccccn4)CC[C@@H]32)C1 [Compound 113],> 100
7,COc1ccc(C(=O)[C@H]2CC[C@H]3[C@@H]4CC[C@@H]5C[C@](C)(O)CC[C@]5(C)[C@H]4CC[C@]23C)c(C)c1 [Compound 33],> 100
8,COC[C@]12CC[C@@](C)(O)C[C@@H]1CC[C@H]1[C@@H]3CC[C@H](C(=O)c4ccc(C)c(C)c4)[C@@]3(C)CC[C@@H]12 [Compound 95],> 100
9,Cc1ccc(C(=O)[C@H]2CC[C@H]3[C@@H]4CC[C@@H]5C[C@](C)(O)CC[C@]5(C)[C@H]4CC[C@]23C)cc1F [Compound 27],20 to 50
10,COC[C@]12CC[C@@](C)(O)C[C@@H]1CC[C@H]1[C@@H]3CC[C@H](C(=O)c4ccc5c(c4)OCO5)[C@@]3(C)CC[C@@H]12 [Compound 94],50 to 100
11,C[C@@]1(O)CC[C@H]2[C@H](CC[C@@H]3[C@@H]2CC[C@]2(C)[C@@H](C(=O)c4ccccn4)CC[C@@H]32)C1 [Compound 60],> 100
12,C[C@@]1(O)CC[C@H]2[C@H](CC[C@@H]3[C@@H]2CC[C@]2(C)[C@@H](C(=O)c4cccc(F)c4)CC[C@@H]32)C1 [Compound 56],20 to 50
13,C[C@@]1(O)CC[C@@]2(C)[C@@H](CC[C@@H]3[C@@H]2CC[C@]2(C)[C@@H](C(=O)c4ccc(Cl)cc4)CC[C@@H]32)C1 [Compound 81],> 100
14,Cc1cccc(C(=O)[C@H]2CC[C@H]3[C@@H]4CC[C@@H]5C[C@](C)(O)CC[C@@H]5[C@H]4CC[C@]23C)c1 [Compound 74],20 to 50
15,C[C@@]1(O)CC[C@H]2[C@H](CC[C@@H]3[C@@H]2CC[C@]2(C)[C@@H](C(=O)c4ccc(-c5ccccc5)cc4)CC[C@@H]32)C1 [Compound 44],50 to 100
16,C[C@@]1(O)CC[C@@]2(C)[C@@H](CC[C@@H]3[C@@H]2CC[C@]2(C)[C@@H](C(=O)c4ccc5c(c4)OCO5)CC[C@@H]32)C1 [Compound 133],> 100
17,COc1cc(OC)cc(C(=O)[C@H]2CC[C@H]3[C@@H]4CC[C@@H]5C[C@](C)(O)CC[C@]5(C)[C@H]4CC[C@]23C)c1 [Compound 21],> 100
18,C[C@@]1(O)CC[C@@]2(C)[C@H](CC[C@@H]3[C@@H]2CC[C@]2(C)[C@@H](C(=O)c4ccccn4)CC[C@@H]32)C1 [Compound 62],> 100
19,COc1cccc(C(=O)[C@H]2CC[C@H]3[C@@H]4CC[C@@H]5C[C@](C)(O)CC[C@]5(C)[C@H]4CC[C@]23C)c1 [Compound 63],50 to 100
20,COC[C@]12CC[C@@](C)(O)C[C@@H]1CC[C@H]1[C@@H]3CC[C@H](C(=O)c4ccc(OC)cc4)[C@@]3(C)CC[C@@H]12 [Compound 107],50 to 100

row,SMILES,IC50 [nM]
1,COc1cccc(C(=O)[C@H]2CC[C@H]3[C@@H]4CC[C@H]5C[C@](C)(O)CC[C@]5(C)[C@H]4CC[C@]23C)c1 [Compound 77],> 100
2,CSc1ccc(C(=O)[C@H]2CC[C@H]3[C@@H]4CC[C@@H]5C[C@](C)(O)CC[C@]5(C)[C@H]4CC[C@]23C)cc1 [Compound 48],20 to 50
3,C[C@@]1(O)CC[C@@]2(C)[C@@H](CC[C@@H]3[C@@H]2CC[C@]2(C)[C@@H](C(=O)c4ccccc4-c4ccccc4)CC[C@@H]32)C1 [Compound 127],> 100
4,Cc1ccc(C(=O)[C@H]2CC[C@H]3[C@@H]4CC[C@@H]5C[C@](C)(O)CC[C@@H]5[C@H]4CC[C@]23C)cc1C [Compound 20],50 to 100
5,"C[C@@]1(O)CC[C@H]2[C@H](CC[C@@H]3[C@@H]2CC[C@]2(C)[C@@H](C(=O)c4cc(F)cc(F)c4)CC[C@@H]32)C1 [Compound 136, (3,5-difluorophenyl)((3R,5R,8R,9R,10S,13S,14S,17S)-3-hydroxy-3,13-dimethylhexadecahydro-1H-cyclopenta[a]phenanthren-17-yl)methanone]",20 to 50
6,C[C@@]1(O)CC[C@H]2[C@@H](CC[C@@H]3[C@@H]2CC[C@]2(C)[C@@H](C(=O)c4ccc5ccccc5c4)CC[C@@H]32)C1 [Compound 59],50 to 100
7,COC[C@]12CC[C@@](C)(O)C[C@@H]1CC[C@H]1[C@@H]3CC[C@H](C(=O)c4ccc(OC)cc4C)[C@@]3(C)CC[C@@H]12 [Compound 96],> 100
8,C[C@@]1(O)CC[C@@]2(C)[C@H](CC[C@@H]3[C@@H]2CC[C@]2(C)[C@@H](C(=O)c4ccc(F)cc4)CC[C@@H]32)C1 [Compound 54],50 to 100
9,COc1ccccc1C(=O)[C@H]1CC[C@H]2[C@@H]3CC[C@@H]4C[C@](C)(O)CC[C@@H]4[C@H]3CC[C@]12C [Compound 50],> 100
10,Cc1ccsc1C(=O)[C@H]1CC[C@H]2[C@@H]3CC[C@@H]4C[C@](C)(O)CC[C@@H]4[C@H]3CC[C@]12C [Compound 46],> 100
11,Cn1c(C(=O)[C@H]2CC[C@H]3[C@@H]4CC[C@@H]5C[C@](C)(O)CC[C@@H]5[C@H]4CC[C@]23C)cc2ccccc21 [Compound 7],50 to 100
12,C[C@@]1(O)CC[C@H]2[C@H](CC[C@@H]3[C@@H]2CC[C@]2(C)[C@@H](C(=O)c4csc5ccccc45)CC[C@@H]32)C1 [Compound 11],20 to 50
13,COC[C@]12CC[C@@](C)(O)C[C@@H]1CC[C@H]1[C@@H]3CC[C@H](C(=O)c4cccc(OC)c4)[C@@]3(C)CC[C@@H]12 [Compound 106],> 100
14,C[C@@]1(O)CC[C@@]2(C)[C@H](CC[C@@H]3[C@@H]2CC[C@]2(C)[C@@H](C(=O)c4ccc(Cl)cc4)CC[C@@H]32)C1 [Compound 51],50 to 100
15,C[C@@]1(O)CC[C@H]2[C@H](CC[C@@H]3[C@@H]2CC[C@]2(C)[C@@H](C(=O)c4ccc(Cl)cc4)CC[C@@H]32)C1 [Compound 52],20 to 50
16,C[C@@]1(O)CC[C@@]2(C)[C@@H](CC[C@@H]3[C@@H]2CC[C@]2(C)[C@@H](C(=O)c4cccc(Cl)c4)CC[C@@H]32)C1 [Compound 101],> 100
17,COC[C@]12CC[C@@](C)(O)C[C@@H]1CC[C@H]1[C@@H]3CC[C@H](C(=O)c4ccc5cc(OC)ccc5c4)[C@@]3(C)CC[C@@H]12 [Compound 97],> 100
18,Cn1cc(C(=O)[C@H]2CC[C@H]3[C@@H]4CC[C@H]5C[C@](C)(O)CC[C@]5(C)[C@H]4CC[C@]23C)cn1 [Compound 124],50 to 100
19,CN(C)c1ccc(C(=O)[C@H]2CC[C@H]3[C@@H]4CC[C@H]5C[C@](C)(O)CC[C@]5(C)[C@H]4CC[C@]23C)cc1 [Compound 114],> 100
20,Cn1ccc(C(=O)[C@H]2CC[C@H]3[C@@H]4CC[C@H]5C[C@](C)(O)CC[C@]5(C)[C@H]4CC[C@]23C)n1 [Compound 123],> 100
